Entries after “also recorded” stand apart in the source; their conditions may differ. Strand notation (5' to 3'): a small letter for the sugar, then the base; units joined by * are phosphorothioate-linked, units joined directly phosphodiester-linked; [ ] holds rarer units or linkages, { } end groups; capitals alone tell only the bases. d = 2'-deoxy (DNA)
Columns and labels:
Assay type in all cases: in vivo, rat
[1] = system: rats with hind paw inflammation (CFA rats); assay: Hind paw dorsoventral thickness in rats with CFA-induced hind paw inflammation; conditions: preventive IMT504 before CFA; whole tested period
Protocol: In fifty-two rats anesthetized with Isoflurane (5% induction, 2.5% maintenance, 0.8 L/min O2 flow rate; Piramal Healthcare, UK), the right hind paw was injected intra-dermally with 100 μl of CFA (1:1, dissolved in normal saline; Sigma-Aldrich, Mo., USA), using a 1 ml syringe with a 25G needle attached. The animals (from now on, called CFA rats) were left to recover from anesthesia in a warm and quiet environment before relocating them in their corresponding cages.
In one set of experiments, called “preventive treatment”, four rats received a daily dose of 20 mg/kg IMT504 for five consecutive days and four weeks later one dose of 6 mg/kg (group a); a second group of four rats received one dose of 6mg/kg of IMT504 (group b) (FIG. 1A). Three days after the single injection of 6 mg/kg IMT504, all eight rats received intra-plantar CFA, after which they were tested for mechanical and cold allodynia during 21 days. At day 28, group b received an additional administration of IMT504 at a dose of 3 mg/kg and was evaluated until day 35. […]
Eight rats received a dose of 6 mg/kg IMT504 (FIGS. 2 and 3). […] On day 28 (FIG. 1) or 28 (FIG. 2), rats receiving preventive IMT504 were administered additional IMT504 at a dose of 3 mg/kg (FIG. 1) or 2 mg/kg (FIG. 2), and assessed until days 21-35.

[2] = system: rats with post-incisional pain; assay: Mechanical allodynia in rats with post-incisional pain (plantar incision); conditions: 6 mg/kg s.c. 48 h and 24 h before incision
Description: In twenty-four rats anesthetized with Isoflurane (5% induction, 2.5% maintenance, 0.8 L/min O2 flow rate; Scott-Cassara, Argentina), the right hind paw plantar skin was cleaned and disinfected. This was followed by a 1-cm longitudinal incision distal to heel and extending towards the toes, as previously described (Xu J, et al., 2011, 24(5): 508-514). The incision involved both plantar skin and fascia. This was followed by identification and longitudinal incision of plantar […] muscle, leaving its insertions intact. After achieving homeostasica, skin was sutured using a 5-0 nylon suture, protected with an antibacterial cream and the animal was returned to its retention cage, under observation, until full recovery from anesthesia.
Rats were subcutaneously administered 6 mg/kg of IMT504, 48 and 24 h before implementing the post-incisional pain model. This was followed by pain-like behavior testing for up to 21 days after injury.
(§1) For mechanical allodynia assessment, a set of von Frey filaments (Stoelting, Ill., USA) and the modified up-down method of Dixon were used, to establish the 50% withdrawal threshold. A withdrawal threshold of 0.21 oz or less was considered an allodynic response.

[3] = system: naïve rats; assay: Hind paw mechanical withdrawal threshold in naïve rats; conditions: 20 mg/kg daily x5; observed up to 22 days; vs saline-treated naïve rats
Protocol: (§2) Naïve (uninjured and untreated; n=16), CFA injured untreated (n=10), and vehicle-treated CFA (n=9) or SNI rats (n=10) were used as controls. Eight naïve rats remained untreated, four were vehicle-treated, and four received a daily dose of 20 mg/kg IMT504 for five consecutive days. Untreated CFA rats received an intradermal hind paw injection of CFA and no further treatment. Vehicle-treated CFA rats received five daily subcutaneous injections of saline (200 μl), starting seven days after injury. Vehicle-treated SNI rats received one single dose of saline (200 ul), starting seven days after injury.
as §1, with “used, as described by Chaplan et al. (Chaplan S R, et, al., (1994) J. Neurosci Methods 53: 55-632)” for “used,”, “6 g” for “0.21 oz”

[4] = system: naïve rats; assay: Tail immersion test (tail heat nociception) in naïve rats; conditions: 20 mg/kg daily x5; observed up to 22 days; 52° C. bath
Protocol: as §2
For acute thermal nociception assessment, the tail immersion test was used. The latency of tail-flick reflex to swift immersion of the last 3 cm of the tip of the tail of each rat on a hot bath (52° C.) was measured using a stopwatch (resolution of 0.01 s). This was repeated three times, with 10 s intervals, and an average response was obtained.

[5] = system: rats with postsurgical pain (plantar incision); assay: Naloxone challenge in IMT504-pre-treated rats with plantar incision, mechanical withdrawal threshold
Protocol: In all experiments, the oligodeoxynucleotide (ODN) IMT504, with sequence 5′-[sequence]-3′ (SEQ ID No 1) was used. The HPLC-grade phosphorothioate ODN (Biosynthesis Inc., Lewisville, Tex., USA) was suspended in sterile saline solution (VEH, 0.9% NaCl; 20 mg/ml; storage concentration) and assayed for LPS contamination. Working concentration doses (6 mg/kg) were obtained by additional dissolving in sterile VEH. The ODN was administered subcutaneously, at a final volume of 200-300 μl, depending on animal weight.
A group of rats also received an intraperitoneal (i.p.) injection of naloxone hydrochloride (Narxona 0.4 mg/ml; Scott-Cassara, Bs. As., Argentina), at a dose of 2 mg/kg, in order to test if the effect of IMT504 could be blocked by the pan-opioid receptor antagonist.
The rat hind paw plantar incision model of postoperative pain was used as previously described [Brennan, T. J., E. P. Vandermeulen, and G. F. Gebhart, Characterization of a rat model of incisional pain. […] Briefly, rats were anesthetized using isoflurane (5% induction, 2.5% maintenance, 0.8 l/min O2 flow rate; Piramal Healthcare, UK) and the plantar aspect of the right hind paw was disinfected with povidone iodine. A 1.0-cm longitudinal incision was made 0.5 cm from the end of the heel. The underlying flexor muscle was also incised longitudinally, allowing the muscle origin and insertion to remain intact. After hemostasis by gentle pressure, the skin was closed with sutures of 5-0 nylon.
Rats were divided into injured rats receiving IMT504 (6 mg/kg, dissolved in VEH) or VEH alone, 48h and 24 h prior to surgery. […]
Mechanical withdrawal thresholds were assessed by using von Frey nylon monofilaments of different bending forces (1.4, 2, 6, 8, 10, 15 and 26 g; Stoelting Inc., Wooddale, USA) and the modified up-down method of Dixon, as described by Chaplan and cols. (Chaplan, S. R., et al., Quantitative assessment of tactile allodynia in the rat paw. J Neurosci Methods, 1994. 53(1): p. 55-63) , to establish the 50% withdrawal threshold. […]

[6] = system: rats with SNI; assay: Mechanical allodynia in rats with spared nerve injury (SNI); conditions: single dose of 6 mg/kg seven days after SNI, s.c.
Description: In twenty-six rats anesthetized with Isoflurane (5% induction, 2.5% maintenance, 0.8 L/min O2 flow rate; Piramal Healthcare, UK), the right sciatic nerve and its three distal branches were exposed by blunt dissection, and the tibial and common peronneal branches completely sectioned and ligated to prevent regeneration. The third branch, the sural nerve, was left intact. The animals received one single injection of ketoprofen for post-surgical pain control and were left to recover from anesthesia in a warm and quiet environment before relocating them in their corresponding cages.
Rats were administered subcutaneously using the LT protocol (FIG. 4A) and a single dose of 6 mg/kg of IMT504. This was followed by pain-like behavior testing for up to six weeks after SNI.
Naïve (uninjured and untreated; n=16), CFA injured untreated (n=10), and vehicle-treated CFA (n=9) or SNI rats (n=10) were used as controls. Eight naïve rats remained untreated, four were vehicle-treated, and four received a daily dose of 20 mg/kg IMT504 for five consecutive days. Untreated CFA rats received an intradermal hind paw injection of CFA and no further treatment. Vehicle-treated CFA rats received five daily subcutaneous injections of saline (200 μl), starting seven days after injury. Vehicle-treated SNI rats received one single dose of saline (200 ul), starting seven days after injury. […]

With “IMT504: synthetic phosphorothioate oligodeoxynucleotide with sequence 5′-TCATCATTTTGTCATTTTGTCATT-3′ (SEQ ID No 1) (DNA dT*dC*dA*dT*dC*dA*dT*dT*dT*dT*dG*dT*dC*dA*dT*dT*dT*dT*dG*dT*dC*dA*dT*dT)” the “effect on hind paw inflammation (dorsoventral paw thickness)” value [1] was “does not prevent occurrence of inflammation; also recorded: did not seem to alter the natural course of hind paw inflammation; also recorded: without altering the inflammatory state of the affected hind paw”, the “day after injury from which basal withdrawal thresholds are shown” value [2] was 3 days and the “mechanical withdrawal thresholds and responses to cold stimuli in contralateral hind paws” value ([2]; data not shown) was “remained normal”. For the same substance, the “reduction of mechanical withdrawal thresholds at 6 h and 1 day after injury” value ([2]; vs vehicle) was “lower reduction of withdrawal thresholds”, the “hind paw mechanical withdrawal threshold in naïve rats” value [3] was “did not shown changes; also recorded: did not show any evident changes” and the “tail thermal withdrawal latency in naïve rats” value [4] was “did not shown changes; also recorded: did not show any evident changes”. For the same substance, the “anti-allodynic effect of IMT504 under systemic non-selective opioid receptor antagonist” value ([5]; naloxone 2 mg/kg i.p. at day 3 after injury (FIG. 18)) was “temporarily blocked”, the “mechanical allodynia on day 3 after injury” value ([5]; two doses of pre-emptive IMT504 (6 mg/kg, 48 h and 24 h before surgery)) was “completely abolished” and the “full recovery of mechanical withdrawal thresholds” value [6] was “fully recovered from week three and onwards”. For the same substance, the “time from which mechanical withdrawal thresholds are almost at basal levels” value [6] was 12 days after injury.

Source: patent publication US20220362279A1, “USE OF OLIGONUCLEOTIDES FOR THE TREATMENT AND PREVENTION OF PAIN” (CONSEJO NACIONAL DE INVESTIGACIONES CIENTÍFICAS Y TÉCNICAS, priority 2018, published 2022)
